From PubChem BioAssay (NCI)
Where “and” joins values, the source holds several entries; their conditions need not be identical. Equal values may be shown once.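 Assay format: 96-well plates, 48-hour exposure. Here, GI50 denotes the concentration required for 50% inhibition of growth. TGI denotes the concentration required for complete inhibition of growth.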

Tested on: MDA-MB-468 breast
Assay: NCI anticancer screen, dose series, 48 h

Nc1nc2c(s1)CCc1c-2c(Br)n(Cc2ccccc2)c1Br
GI50: 2.84 µM
TGI: 17.2 µM

NC1CCC(Nc2nc(NCc3ccc(-c4cccs4)nc3)c3ncn(C4CCCC4)c3n2)CC1 (stereo not drawn)
GI50: < 0.0134 µM
TGI: 0.035 µM

O=C(c1ccccc1)c1ccc(Oc2ccc([N+](=O)[O-])cc2[N+](=O)[O-])cc1
GI50: 1.73 µM
TGI: 3.38 µM

CC1=CC(=C(c2ccc(N)cc2)c2ccc(N)cc2)C=CC1=N
GI50: 0.373 µM and 0.411 µM
TGI: 4.9 µM and 4.3 µM

COc1ccc2c(c1)[nH]c(=O)c1c3cc(OC)ccc3cn21
GI50: 0.0393 µM
TGI: 1.16 µM

COc1ccc(C(=O)c2cc(OC)c(OC)c(OC)c2)cc1/C=C/C(=O)c1ccc(OC)c(OC)c1
GI50: 1.25 µM
TGI: 77.7 µM

Clc1ccc2c(c1)N(CCCN1CCCC1)c1ccccc1S2
GI50: 2.75 µM
TGI: 8.05 µM

O=C1Nc2c(C(F)(F)F)cccc2[C@@]1(c1ccc(O)cc1)c1ccc(OC(F)(F)F)cc1
GI50: < 0.01 µM
TGI: < 0.01 µM

Cc1cc(O)ccc1C1=NN(c2ccc(S(C)(=O)=O)cc2)C(=O)CC1
GI50: 11 µM
TGI: 44.3 µM

CCOC(=O)n1cc(C2=C(c3cn(C)c4ccccc34)COC2=O)c2ccccc21
GI50: 0.053 µM
TGI: > 100 µM

C/C(=C\CCc1ccoc1)CC/C=C(\C)CCCN1CCOCC1
GI50: 2.58 µM
TGI: 9.59 µM

Cn1cc(C2=C(c3cn(C)c4c([N+](=O)[O-])cccc34)C(=O)NC2=O)c2ccccc21
GI50: > 25 µM
TGI: > 25 µM

CC(C)(C)C(=O)OCOP(=O)(OCOC(=O)C(C)(C)C)C1CC(O)N(O)C1=O (stereo not drawn)
GI50: 5.84 µM
TGI: > 100 µM

CCN1C(=O)N(CC)C2Nn3c(s/c(=C\c4ccccc4Br)c3=O)=NC21 (stereo not drawn)
GI50: 1.1 µM
TGI: 6.87 µM

Nc1ncc(-c2ccc3ncnc(N4CCc5cc(F)c(Cl)cc54)c3c2)cn1
GI50: 0.804 µM
TGI: 3.04 µM

CN(Cc1cc(Br)cc(Br)c1O)Cc1cc(Br)cc(Br)c1O
GI50: 2.09 µM
TGI: 13 µM

O=C(/C(=C\c1ccc([N+](=O)[O-])cc1)S(=O)Cc1ccc(F)cc1)c1ccc(F)cc1 (stereo not drawn)
GI50: 2.05 µM
TGI: 4.36 µM

COc1cc2nc(SCC(=O)Nc3cc(OC)c(OC)c(OC)c3)n(Cc3ccccc3)c(=O)c2cc1OC
GI50: 5.72 µM
TGI: 20.2 µM

Cc1ccc(C(SCC(N)C(=O)O)(c2ccc(C)cc2)c2ccc(C)cc2)cc1 (stereo not drawn)
GI50: 1.46 µM
TGI: 16.6 µM

COc1ccc(C(SCC(N)C(=O)O)(c2ccccc2)c2ccccc2)cc1 (stereo not drawn)
GI50: 0.0627 µM
TGI: > 78.1 µM

O=C1C(=O)c2c(nc3ccc(Br)cn23)-c2ccccc21
GI50: 1.53 µM
TGI: 3.22 µM

Cl.Fc1c[c-]c(-c2ccccn2)c(F)c1.[Pt].c1ccc(P(c2ccccc2)C([PH+](c2ccccc2)c2ccccc2)[PH+](c2ccccc2)c2ccccc2)cc1
GI50: 2.69 µM
TGI: 19.5 µM

NC(=O)c1ccc(NN=O)nc1
GI50: > 100 µM
TGI: > 100 µM

C=CC(=O)NCc1cccc(Nc2ncc(Br)c(NCCCNC(=O)C3CCC3)n2)c1
GI50: 1.64 µM and 1.02 µM
TGI: 4.33 µM and 5 µM

Cc1ccc(-c2cc3c(SCC(=O)Nc4cc(C(F)(F)F)ccc4Cl)nccn3n2)cc1
GI50: > 100 µM
TGI: > 100 µM

CS(=O)(=O)Nc1ccc(-c2cc(-c3ccccc3)cc(C(N)=O)c2N)cc1
GI50: 14.5 µM
TGI: > 25 µM

Cc1ccccc1-n1ncc(C(=O)c2ccccc2)c1N
GI50: > 25 µM
TGI: > 25 µM

Clc1cccc(Cl)c1C1CSc2ccccc2N=C1c1ccccc1 (stereo not drawn)
GI50: 9.59 µM
TGI: 29.2 µM

Cc1ccc(-c2cc(C(F)(F)F)nn2-c2ccc(S(N)(=O)=O)cc2)cc1
GI50: 24.2 µM
TGI: 90.7 µM

CN(C)c1ccc(N=C2C=CC(=[N+](C)C)C=C2)cc1
GI50: 3.04 µM
TGI: 12.2 µM

COc1ccc(C(=O)COC(=O)[C@H](C[Se][Se]C[C@H](NC(=O)c2ccc(Br)cc2F)C(=O)OCC(=O)c2ccc(OC)cc2)NC(=O)c2ccc(Br)cc2F)cc1
GI50: 1.72 µM
TGI: 3.85 µM

CCCNNC(=O)c1ccc(-c2ccc(NC(=O)CCCCCCC(=O)N[C@H](C(=O)N3C[C@H](O)C[C@H]3C(=O)N[C@@H](C)c3ccc(-c4scnc4C)cc3)C(C)(C)C)cc2)cc1
GI50: 0.592 µM

CC(=O)c1cc(C(=O)c2ccc3c(c2)Sc2ccccc2N3)c2c(C)cc(C)cn12
GI50: 0.496 µM
TGI: > 100 µM

COC(=O)[C@]12CC[C@@H](C)[C@H](C)[C@@H]1C1=CC[C@@H]3[C@@]4(C)C(C=O)=C[C@@](C)(COC(C)=O)C4=CC[C@@]3(C)[C@]1(C)CC2
GI50: 4.21 µM
TGI: 17.7 µM

CCCCCCCCCCCCCC1=NCCN1CCO
GI50: 2.12 µM
TGI: 5.58 µM

CCCCCCCCN(CCCCCCCC)CCCCCCNc1cc(OC)cc2cccnc12
GI50: 3.71 µM
TGI: 13.5 µM

[O-][n+]1ccccc1S
GI50: 4.15 µM
TGI: 45.2 µM

Clc1ccc2c(c1)N(c1ncnc3ccc(-c4cnc5[nH]ccc5c4)cc13)CC2
GI50: 0.38 µM
TGI: 13.7 µM

O=[N+]([O-])c1ccccc1N/N=C\c1c[nH]c2ccccc12
GI50: 1.13 µM
TGI: 5.85 µM

O=C1NC(=O)C(=C/C=C/c2ccccc2)C(=O)N1
GI50: 2.99 µM
TGI: 10.1 µM

COc1cc(-c2nc3ccccc3s2)ccc1NC(=O)COc1ccc(Cl)cc1
GI50: 2.08 µM
TGI: 56.6 µM

C[C@H](Nc1ncnc2nc[nH]c12)c1cc2ccc(F)cc2nc1-c1ccccn1
GI50: 31.9 µM
TGI: > 100 µM

Nc1nc(OCc2cc(Br)cs2)c2[nH]cnc2n1
GI50: 14 µM
TGI: 58.6 µM

O=C1c2nsnc2C(=O)c2c(F)c(F)c(F)c(F)c21
GI50: 0.672 µM
TGI: 2.32 µM

CC1(C)CCC2=C(O1)c1ccccc1C(=O)C2=O
GI50: 1.68 µM
TGI: 3.36 µM

COC1CCN(C(=O)c2cc(Cc3n[nH]c(=O)c4ccccc34)ccc2F)CC1
GI50: 30 µM
TGI: > 100 µM

c1cc2[nH]ncc2cc1-c1nc2ccc3[nH]ncc3c2c2c1CCCC2
GI50: 0.403 µM
TGI: 3.16 µM
